Results published in patent US20140273094A1, “METHODS OF ENHANCING PROTEIN QUALITY AND QUANTITY BY YEAST FED-BATCH FERMENTATION” (BRISTOL-MYERS SQUIBB COMPANY, priority 2013, published 2014).

Tested on: P. pastoris
Assay: Effect of hydroxyurea on cell growth and antibody productivity in fed-batch fermentation, Run 01MAY11
Type: cell-based, Pichia pastoris
Protocol: The glucose and ethanol were measured by YSI 2700 (YSI Incorporated, Yellow Springs, Ohio), O2 and CO2 of the exhaust line were measured by Questor GP Process Mass Spectrometer (ABB Extrel, Pittsburgh, Pa.) and the RQ value was calculated using below Equation [1]. The wet cell weight (WCW) was measured by centrifuging 1 milliliter (mL) fermentation broth at 13,200 rpm for 10 minutes, weighing pellet, and calculated ratio of pellets weight (g) over volume (mL). The supernatant titer (g/L) was measured by the HPLC method and the whole broth (WB) titer was then calculated by below Equation [2].
WB_Titer=Supernatant_Titer*(1−WCW/1000)
The treatment cultures were operated the same way plus adding hydroxyurea 5 hours after feed start.

NC(=O)NO [Hydroxyurea] was tested, and the “average whole broth titer” value (90 hours run time, three hydroxyurea treatment lots) was 75 normalized units and the “WCW reached and maintained by hydroxyurea treatment lots” value (after peak cell density at 30-40 hours, control lots ~400 g/Kg) was roughly 450 g/kg.
